Results: ChEMBL document CHEMBL5724803, “Viability screening in matched tumor and normal assay results for EUbOPEN Chemogenomics Library” (2024)

Test system: Colon organoid
Type: functional, Homo sapiens

Row | SMILES | Cell Viability Ratio
1 | CCOC(=O)c1c(/C(C#N)=C\N)c2ccc(Cl)c(Cl)c2n1C | 1.055
2 | CCCCN(Cc1ccccc1)C(=O)c1ccc(S(=O)(=O)Nc2ccccc2)cc1 | 1.3021
3 | COc1cc(N(C)c2ccnc3ccc(C(F)(F)F)cc23)cc(OC)c1OC | 0.896
4 | CNC(=O)c1ccccc1Nc1cc(Nc2ccc(N3CCOCC3)cc2OC)ncc1C(F)(F)F [VS-4718] | 0.4552
5 | O=c1nc(-c2ccccn2)sc2ccccc12 [BTZO-1] | 0.8779
6 | Nc1nc(NCc2ccccc2)nc(-c2ccccc2CO)n1 [Ogerin] | 1.099
7 | O=C(Nc1cccnn1)N1CCC(=Cc2cccc(Oc3ccc(C(F)(F)F)cn3)c2)CC1 | 0.957
8 | COc1ccc2c(c1)O[C@@H](c1ccc(OC)c(OC)c1)C[C@H]2NC(=O)C1(c2ccc3c(c2)OC(F)(F)O3)CC1 [A-1596586] | 1.062
9 | CN(C)[C@H]1CCN(c2cc(-c3ccccc3)nc3ccnn23)C1 [(S)-ZINC-3573] | 1.093
10 | Cc1nc(Cc2cccc(C(F)(F)F)c2)sc1-c1ccc(C(N)=O)nc1 [TP-024n] | 1.0424
11 | O[C@]1(C(F)(F)F)CCCC[C@H]1Nc1ccc(F)cc1 [BAY-390] | 0.968
12 | Cc1ccc(NC(=O)Nc2cc(C(F)(F)F)ccc2F)cc1Nc1ccc2c(c1)NC(=O)/C2=C\c1ccc[nH]1 | 0.7659
13 | CCN(CC)S(=O)(=O)Nc1cccc(-c2ccc3c(NC(=O)C4CC4)n[nH]c3c2)c1 | 1.062
14 | O=C1NC(c2ccccn2)Sc2ccccc21 (centres undefined) [BTZO-4] | 1.041
15 | O=C(O)c1ccc(-c2coc3ncc(-c4ccccc4)cc23)cc1Cl | 0.9757
16 | COc1ccc2cc(OCC3(C(=O)O)CN(C(=O)c4ccc(F)cc4)C3)ccc2c1 [PF-04418948] | 1.076
17 | CCCOc1ccc([C@H]2[C@H](C(=O)O)[C@@H](c3ccc4c(c3)OCO4)CN2CC(=O)Nc2c(CC)cccc2CC)cc1 [A-192621] | 1.0774
18 | O=C(Nc1cccnn1)N1CC(C/C=C/c2cncc(Oc3ccc(C(F)(F)F)cn3)n2)C1 | 0.9954
19 | Cn1nc(C(F)(F)F)cc1-c1cnc(N2CCc3cc(S(=O)(=O)Nc4c(F)cc(Cl)cc4F)cc(N4CCCC4=O)c32)nc1 [TP-020] | 0.9629
20 | CCCCN(CCCC)C(=O)CN1C[C@@H](c2cc(OC)c3c(c2)OCO3)[C@H](C(=O)O)[C@H]1CC(C)(C)CCC.Cl | 0.8768
21 | COc1cc(-c2cn([C@H]3CCc4ccccc4N(CC(F)(F)F)C3=O)nn2)ccc1-n1ccc(C)n1 | 0.9931
22 | CS(=O)(=O)NCC[C@H](NC(=O)c1cncc2c1cnn2-c1ccc(F)cc1)c1ccnc(S(C)(=O)=O)c1 [BI 9307] | 1.198
23 | C[C@@H](c1cccc(CN)c1)n1cc(Cl)cc(C(N)=O)c1=N.Cl | 1.078
24 | CC(=O)N1CCC(c2ccc(C(=O)NC3=NCCN3)cc2C(F)(F)F)CC1 [BI 0054] | 1.041
25 | C[C@H](NC(=O)c1cnc2n1[C@](C)(Cc1ccc(C#N)cc1)C(=O)N2c1cc(Cl)c(F)c(Cl)c1)C(=O)NC1(c2ccccn2)CC1 [BI 1950] | 0.9219
26 | CO[C@@H](C)c1c(Nc2ccc([C@H](N(C)C(=O)C3CCS(=O)(=O)CC3)C(F)(F)F)cc2)cnc2cc(Cl)nn12 [NVS-MALT1] | 0.853
27 | COCCOc1nc(-c2ccc(Cl)nc2)nc2c1CN(C(=O)c1ncn3ccccc13)CC2 [THPP-1] | 1.038

Row | SMILES | Cell Viability Ratio
28 | Cl.Cl.NC1(c2ccc(-c3nc4ccn5c(=O)[nH]nc5c4cc3-c3ccccc3)cc2)CCC1 | 1.463
29 | Cc1c(NC(=O)c2cc(C(N)=O)nc3cc(F)ccc23)c(C(F)(F)F)nn1Cc1ccc(C(C)(C)C)cc1 [BAY-588] | 1.099
30 | O=C(NCCN1CCOCC1)c1ccc2c(c1)C(=O)c1ccc(Nc3ccc(F)c(NC(=O)c4ccccc4)c3)cc1CC2 [FS-694] | 0.8259
31 | CN(C)C(=O)Cn1cc(-c2ccc(-c3nnc4ccccn34)cc2)cn1 | 1.225
32 | CC(C)CC(=O)N1CCc2nc(-c3ccc(Br)cc3)nc(N(C)Cc3ccccc3)c2C1 [THPP-1-NC] | 1.2658
33 | COc1cc(Nc2nccc(-c3cnn4nc(OC)ccc34)n2)cc(C(F)(F)F)c1 | 1.735
34 | Cn1cc(-c2ccc3occ(-c4ccccc4-c4ccccc4)c3n2)cn1 | 0.9405
35 | CCS(=O)(=O)c1cc2cc(C[C@@](O)(CC(C)(C)c3ccc(F)cc3C(N)=O)C(F)(F)F)[nH]c2cn1 [BI 3047] | 1.1136
36 | Cc1ccc2nc(CNCCCOc3ccccc3)cc(O)c2c1 [UCSF924] | 1.046
37 | CO[C@H]1CC[C@H](CNc2ccc(S(=O)(=O)NC(=O)c3ccc(N4CCN(CC5=C(c6ccc(Cl)cc6)CC(C)(C)CC5)CC4)cc3Oc3cnc4[nH]ccc4c3)cc2[N+](=O)[O-])CC1 [A-1211212] | 0.9488
38 | CN(C)C(=O)/C(C#N)=C/c1ccc(-c2nc3cnc4[nH]ccc4c3n2C2CCCCC2)o1 | 0.9378
39 | CC(C)(O)c1cncc(-c2nc3ccc(F)cc3n2C2CC2)c1 [MSD-CYP11B2] | 0.9895
40 | O=C(c1ccc(F)cc1)N1CC(COc2ccc(Br)cc2)(C(=O)O)C1 [PF-04475866] | 0.9754
41 | CN(C)[C@@H]1CCN(c2cc(-c3ccccc3)nc3ccnn23)C1 [(R)-ZINC-3573] | 0.9989
42 | Cc1cc(Nc2nccc(C)n2)cc(-c2cnc([C@@]3(O)CC[C@H](C(=O)O)C(C)(C)C3)s2)c1 [MRL-SYKi] | 0.8949
43 | COc1ccc2c(O[C@@H]3C[C@H]4C(=O)N[C@]5(C(=O)O)CC5/C=C\CCCCC[C@H](NC(=O)OC5CCCC5)C(=O)N4C3)cc(-c3csc(NC(=O)C(C)C)n3)nc2c1C (some centres undefined) [BI 1230] | 0.9938
44 | COc1cc(-c2cn([C@H]3CCc4c(F)cccc4N(CC(F)(F)F)C3=O)nn2)ccc1-n1cnc(C)c1 | 1.087
45 | C[C@@]1(Cc2ccc(C#N)cc2)C(=O)N(c2cc(Cl)cc(Cl)c2)c2ncc(C(=O)NC3(c4nc(C5CCC5)no4)CC3)n21 [BI 9446] | 1.099
46 | CNC(=O)Nc1ccc2c(c1)CC[C@@]21OC(=O)N(CC(=O)N(Cc2ccc(F)cc2)[C@@H](C)C(F)(F)F)C1=O [A-485] | 0.9163
47 | Cc1c(NC(=O)c2ccc(C(C)(C)C)cc2)cccc1-c1cn(C)c(=O)c(Nc2ccc(C(=O)N3CCOCC3)cc2)n1 | 0.9821
48 | CCN(Cc1ccc(Cl)cc1)c1ncc(C(=O)NCCCN2CCCC2=O)c(NC2CCCC2)n1 | 1.023
49 | CN(c1ccnc(CNc2nc(Nc3ccc4c(c3)CC(=O)N4)ncc2C(F)(F)F)n1)S(C)(=O)=O [PF-00911705] | 1.1264
50 | O=C1c2ccc(Nc3ccc(F)cc3F)cc2CCc2ccc(OC[C@H](O)CO)cc21 [Skepinone-L] | 1.035
51 | CN(C(=O)c1ccccc1)c1cc(N(C)c2ccc3c(c2)CCc2ccc(C(=O)NCCN4CCOCC4)cc2C3=O)ccc1F [FM-743] | 0.9975
52 | COc1cccc(CNC(=O)c2nc3scc(CN(C)Cc4ccccc4)c3c(=O)[nH]2)c1 [T-26f] | 1.048
53 | CNC(=O)c1cc(C(=O)NC2CC2)cn(Cc2ccccc2)c1=O [GSK620] | 0.8825
54 | CN(C)C(=O)Cn1cc(-c2ccc(-c3cncc4ccccc34)cc2)cn1 | 0.9698
